# Measured values taken from publication PMC10888717, “Identification of Novel Non-Nucleoside Inhibitors of Zika Virus NS5 Protein Targeting MTase Activity” (International Journal of Molecular Sciences, 2024).
# Like-named read-outs stand apart in the source and are kept apart here.
# Assays:
# ZIKV NS5 MTase = biological target: T1, ZIKV NS5 MTase (Zika virus, UniProt A0A024B7W1); assay: ZIKV NS5 MTase radioactive filter-binding assay (2′-O-MTase activity); type: biochemical; conditions: at least two experiments; for IC50: read-out: IC50 (half-maximal inhibitory enzymatic concentration)
# T1 construct: KJ776791.2, aa 4–278; His6 (N); made in house; host or cells: Escherichia coli T7 Express Iq
# T1 sequence (A0A024B7W1 2524-2798): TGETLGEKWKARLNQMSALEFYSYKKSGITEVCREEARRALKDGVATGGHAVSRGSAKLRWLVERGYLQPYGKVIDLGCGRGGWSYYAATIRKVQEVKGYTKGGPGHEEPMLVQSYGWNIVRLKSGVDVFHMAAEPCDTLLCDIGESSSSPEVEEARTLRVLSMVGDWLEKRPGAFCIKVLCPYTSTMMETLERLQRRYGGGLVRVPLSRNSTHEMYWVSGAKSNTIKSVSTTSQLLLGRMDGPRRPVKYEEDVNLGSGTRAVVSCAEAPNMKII
# Protocol: Selected compounds were evaluated in enzymatic inhibition assays against both ZIKV and DENV 2′-O-MTase activity (For details, see Figure S3 in Supplementary Materials). The screening of compounds at a concentration of 50 µM highlighted a higher inhibitory activity against ZIKV MTase. We thus focused our efforts on ZIKV and determined the IC50 values against ZIKV MTase.
# Expression and purification of ZIKV NS5 MTase: The coding sequence of the ZIKV NS5 MTase domain (strain H/PF/2013, GenBank accession no. KJ776791.2, aa 4–278) was synthesized by Genscript and cloned into a pQE30 vector (Qiagen, Hilden, Germany) with an N-terminal His6 tag. The protein was expressed and purified following the procedures described in Coutard et al..
# Briefly, after expression in Escherichia coli T7 Express Iq (New England BioLabs) in Terrific Broth at 17 °C overnight, bacterial pellets were resuspended in lysis buffer (50 mM Tris-HCl [pH 8], 300 mM NaCl, 5% glycerol, 0.1% Triton, 10 μg/mL DNase I, 2 tablets of EDTA-free antiprotease cocktail [Roche] and 0.25 mg/mL lysozyme). Following cell lysis and clarification, the protein was purified by affinity on immobilized metal affinity chromatography (IMAC, His prep column [GE Healthcare]), followed by size exclusion chromatography (Superdex S75 HR 16/20 column [GE Healthcare]). The NS5-MTase was concentrated and stored at −20 °C after adding glycerol to a final concentration of 40%.
# Filter-binding assay: The transfer of tritiated methyl from ^[3H]SAM onto RNA substrate was monitored by a filter-binding assay (FBA), performed according to the method described previously. FBA was carried out in a reaction mixture [40 mM Tris-HCl (pH 8.0), 1 mM DTT, 2 μM SAM, and 0.1 μM 3H-SAM (Perkin Elmer, Shelton, CT, USA)] in the presence of 0.7 μM synthetic ^7mGpppAC4 and ZIKV NS5 MTase (500 nM). The enzyme was first mixed with an increasing concentration of inhibitors, previously suspended in dimethyl sulfoxide (DMSO), before the addition of RNA substrate and SAM, and then incubated at 30 °C. The final DMSO concentration in reactions was 5%. Reaction mixtures were stopped after 30 min incubation by their 10-fold dilution in ice-cold water. Samples were transferred to diethylaminoethyl (DEAE) filtermat (Perkin Elmer, Shelton, CT, USA) using a Filtermat Harvester (Packard Instruments, Meriden, CT, USA). The RNA-retaining mats were washed twice with 10 mM ammonium formate pH 8.0, twice with water, and once with ethanol before drying. They were soaked with scintillation fluid (Perkin Elmer, Shelton, CT, USA), and 3H-methyl transfer to the RNA substrates was determined using a Wallac MicroBeta TriLux Liquid Scintillation Counter (Perkin Elmer, Shelton, CT, USA). For IC50 measurements, values were normalized and fitted with Prism (GraphPad software version 10.1.1) using the following equation: Y = 100/(1 + ((X/IC50) ^ Hillslope)).
# DENV MTase = DENV MTase enzymatic inhibition assay; type: biochemical, Dengue virus; conditions: read-out: IC50 against DENV MTase
# Text: Firstly, a pharmacophoric model was developed taking into consideration the most populated interactions (Figure 1C). The pharmacophore was used to perform a first screening, choosing molecules matching the pharmacophore features representing the interactions of the SAM adenine group and at least one of the two groups of features representing the interaction of SAM methionine moieties, with the aim of identifying compounds able to form interactions within both the adenine and the methionine subpockets of the SAM-binding site. The obtained results were then subjected to docking analysis using Glide XP, Glide SP, and GOLD (using the GoldScore fitness function). At the end of each docking procedure, a post-docking filter was applied to check whether the desired pharmacophoric interactions were maintained in the predicted binding modes of the docked compounds. Only the ligands for which a common binding mode matching the desired pharmacophore features was predicted by all the docking software were retained and then subjected to clustering and visual inspection. […]
# Selected compounds were evaluated in enzymatic inhibition assays against both ZIKV and DENV 2′-O-MTase activity (For details, see Figure S3 in Supplementary Materials). […] We thus focused our efforts on ZIKV and determined the IC50 values against ZIKV MTase.
# [1] = Cytotoxicity assay (MTT) on Vero E6 cells; type: cell-based; conditions: African green monkey
# Protocol: Compounds characterized by the best anti-enzymatic activity were tested against ZIKV in cellular assays. VERO E6 cells were infected with ZIKV at a multiplicity of infection (M.O.I.) of 0.1, and their activities were evaluated by a plaque reduction assay three days post-infection. Ribavirin was used as a reference compound. As reported in Table 2, compound 1, identified in the first screening, was unable to inhibit viral replication up to a 100 μM concentration. […] The cytotoxicity of the series was determined on the same cell line. […] Their selectivity indexes were calculated as the ratio between CC50 and IC50 values; the results highlight their promising safety profile.
# Monolayers of 2.5 × 10^4 Vero E6 cells per well were grown in flat-bottom 96-well culture plates and allowed to adhere overnight. Then, when the cell layers were confluent, the medium was removed, the wells were washed twice with PBS, treated with 100 µL of DMEM with 10 µL DMSO alone (cell positive control) or with various concentrations of anti-NS5 inhibitory compounds under study (compound final concentrations of 100, 10, 1, 0.1, and 0.01 μM), and incubated for 3 days at 37 °C in a CO2. After treatment, an MTT (3-(4,5-dimethylthiazol-2-yl)-2,5-diphenyltetrazolium bromide) kit (Roche, Milan, Italy) was used according to the supplier’s instructions, and the absorbance of each well was determined using a microplate spectrophotometer at a wavelength of 570 nm. Cytotoxicity was calculated by dividing the average optical density of treated samples by the average of DMSO-treated samples (cell positive control).
# ZIKV [2] = assay: ZIKV inhibitory viral plaque reduction assay in Vero E6 cells; type: cell-based, Zika virus; conditions: for IC50: Zika virus
# [3] = Stability test in human plasma; type: in vitro ADME; conditions: pH 7.4, 37 °C, up to 24 h, read-out: Plasma Stab. (T1/2, h ± SD) (converted)
# Protocol: Finally, compounds were incubated in human plasma at 37 °C for 24 h. […] Taken together, stability studies confirmed that the series is suitable for further development.
# (§1) For the ADME property determination, an Agilent 1260 Infinity HPLC-DAD interfaced with an Agilent MSD 6130 (Agilent Technologies, Palo Alto, CA, USA) was used. Chromatographic conditions were optimized using a Phenomenex Kinetex C18-100 Å column (150 × 4.6 mm) with 5 µm particle size and gradient elution with a binary solution (eluent A: H2O; eluent B: ACN; both eluents were acidified with formic acid 0.1% v/v) at room temperature. The LC analyses started with 5% of B (from t = 0 to t = 1 min), then B was increased to 95% (from t = 1 to t = 10 min) and then kept at 95% (from t = 10 to t = 19 min) and finally returned to initial conditions in 1.0 min. The flow rate was 0.6 mL/min and the injection volume was 10 µL.
# A stock solution of the target compound in DMSO (2 mM) was incubated in a test tube with pooled human plasma (55.7 mg protein/mL) and HEPES buffer (25 mM, 140 mM NaCl pH 7.4) up to a final volume of 1.0 mL. The mixture was incubated at 37 °C, and at set time points (0.0, 0.5, 1, 4, 8, 24 h), samples of 50 µL were taken, mixed with 400 µL of ACN to stop the reaction of plasmatic esterases, and centrifuged at 5000 rpm for 15 min. The supernatant was removed and analyzed using the LC-UV/MS method previously described. The half-life (t½) was calculated according to the following equation: t½=ln 2/k where k represents the substrate elimination constant. For each compound, the determination was performed in three independent experiments.
# [4] = Metabolic stability in human liver microsomes; type: in vitro ADME; conditions: 1 h, 37 °C, three experiments
# Protocol: The metabolic stability was investigated by incubating selected compounds with human liver microsomes (HLMs) for 1 h at 37 °C. The percentage of non-metabolized compounds and metabolites was analyzed by HPLC-UV-MS. […] HPLC analysis confirmed the presence of the oxidated metabolites in small percentages.
# as §1
# The test was performed as previously reported with minor modifications. Each compound was dissolved in DMSO and phosphate buffer (0.025 M, pH 7.4), and human liver microsomes (0.2 mg/mL) and a NADPH-regenerating system in MgCl2 48 mM were added to a final volume of 500 µL. This solution was incubated for 1 h at 37 °C and then the reaction was stopped and quenched using 1 mL of ACN. The reaction mixtures were then centrifuged (4000 rpm for 10 min) and the supernatant was taken, dried under nitrogen flow, and then resuspended in 100 µL of methanol. The parent drug and metabolites were subsequently determined using the chromatographic conditions described above. The percentage of non-metabolized compounds was calculated by comparison with reference solutions. The determination of metabolic stability for each compound was performed in three independent experiments.
# ZIKV [5] = conditions: cited from earlier work
# [6] = VERO E6 cells, MTT, 3 days, read-out: CC50 ± SD (half-maximal cytotoxic concentration)
# [7] = Vero C1008, read-out: IC50 ± SD (half-maximal inhibitory concentration, ZIKV plaque reduction)
smiles,measurement,setting,value
O=C(Nc1ccc2c(c1)C(=O)NC2=O)c1cc2cc([N+](=O)[O-])ccc2s1 [Compound 1],IC50,ZIKV NS5 MTase,53 µM
same,IC50,DENV MTase,69 µM
same,CC50 at 3 days,[1]; [6],> 100 µM
same,IC50,ZIKV [2]; [7],> 100 µM
O=C(Nc1ccc2c(c1)C(=O)NC2)c1cc2cc([N+](=O)[O-])ccc2s1 [Compound 2],IC50,ZIKV NS5 MTase,20 µM
CN1C(=O)c2ccc(NC(=O)c3cc4cc([N+](=O)[O-])ccc4s3)cc2C1=O [Compound 3],IC50,ZIKV NS5 MTase,16.6 µM
same,CC50 at 3 days,[1]; [6],> 100 µM
same,"SI (Selectivity Index, ratio between CC50 and IC50)",ZIKV [2]; VERO E6 cells,>3.49
same,IC50,ZIKV [2]; [7],28.6 ± 1.3 µM
NS(=O)(=O)c1cccc(NC(=O)c2cc3cc([N+](=O)[O-])ccc3s2)c1 [Compound 4],IC50,ZIKV NS5 MTase,34 µM
NC(=O)c1ccc(NC(=O)c2cc3cc([N+](=O)[O-])ccc3s2)cc1 [Compound 5],IC50,ZIKV NS5 MTase,37 µM
O=C(O)c1ccc(NC(=O)c2cc3cc([N+](=O)[O-])ccc3s2)cc1 [Compound 6],IC50,ZIKV NS5 MTase,50 µM
O=C(Nc1ccccc1)c1cc2cc([N+](=O)[O-])ccc2s1 [Compound 7],IC50,ZIKV NS5 MTase,57 µM
CN1C(=O)c2ccc(NC(=O)c3cc4cc([N+](=O)[O-])ccc4o3)cc2C1=O [Compound 8],IC50,ZIKV NS5 MTase,22.6 µM
same,half-life,[3],7.31 ± 0.17 h
same,CC50 at 3 days,[1]; [6],> 100 µM
same,"SI (Selectivity Index, ratio between CC50 and IC50)",ZIKV [2]; VERO E6 cells,>52.63
same,IC50,ZIKV [2]; [7],1.9 ± 0.3 µM
same,HLM Stab.% ± SD (percentage of non-metabolized compound),[4],96.93 ± 0.57%
CN1C(=O)c2ccc(NC(=O)c3cc4ccccc4o3)cc2C1=O [Compound 9],IC50 (half-maximal inhibitory enzymatic concentration),ZIKV NS5 MTase,completely inactive
same,IC50,ZIKV NS5 MTase,> 100 µM
NC(=O)c1ccc(NC(=O)c2cc3ccccc3s2)cc1 [Compound 10],IC50,ZIKV NS5 MTase,36 µM
CNC(=O)c1ccc(NC(=O)c2cc3ccccc3s2)cc1 [Compound 11],IC50 (half-maximal inhibitory enzymatic concentration),ZIKV NS5 MTase,completely abolished the activity
same,IC50,ZIKV NS5 MTase,> 100 µM
CNC(=O)c1cccc(NC(=O)c2cc3ccccc3s2)c1 [Compound 12],IC50 (half-maximal inhibitory enzymatic concentration),ZIKV NS5 MTase,completely abolished the activity
same,IC50,ZIKV NS5 MTase,> 100 µM
O=C(Nc1ccc2c(c1)C(=O)NC2)c1cc2ccccc2s1 [Compound 13],IC50,ZIKV NS5 MTase,46 µM
CN1C(=O)c2ccc(NC(=O)c3cc4ccccc4s3)cc2C1=O [Compound 14],IC50,ZIKV NS5 MTase,31 µM
CN1C(=O)c2ccc(NC(=O)c3cc4cc(Cl)ccc4s3)cc2C1=O [Compound 15],IC50,ZIKV NS5 MTase,14.2 µM
same,half-life,[3],> 24 h
same,CC50 at 3 days,[1]; [6],> 100 µM
same,"SI (Selectivity Index, ratio between CC50 and IC50)",ZIKV [2]; VERO E6 cells,>71.43
same,IC50,ZIKV [2]; [7],1.4 ± 0.3 µM
same,HLM Stab.% ± SD (percentage of non-metabolized compound),[4],98.57 ± 0.07%
CN1C(=O)c2ccc(NC(=O)c3sc4ccccc4c3Cl)cc2C1=O [Compound 16],IC50,ZIKV NS5 MTase,13.1 µM
same,CC50 at 3 days,[1]; [6],> 100 µM
same,"SI (Selectivity Index, ratio between CC50 and IC50)",ZIKV [2]; VERO E6 cells,>38.46
same,IC50,ZIKV [2]; [7],2.6 ± 0.2 µM
CN1C(=O)c2ccc(NC(=O)c3cc4c(Cl)cccc4s3)cc2C1=O [Compound 18],IC50,ZIKV NS5 MTase,100 µM
Cc1ccc2sc(C(=O)Nc3ccc4c(c3)C(=O)N(C)C4=O)cc2c1 [Compound 19],IC50,ZIKV NS5 MTase,40 µM
Cc1cccc2cc(C(=O)Nc3ccc4c(c3)C(=O)N(C)C4=O)sc12 [Compound 20],IC50,ZIKV NS5 MTase,18.9 µM
same,half-life,[3],> 24 h
same,CC50 at 3 days,[1]; [6],> 100 µM
same,"SI (Selectivity Index, ratio between CC50 and IC50)",ZIKV [2]; VERO E6 cells,>15.15
same,IC50,ZIKV [2]; [7],6.6 ± 0.5 µM
same,HLM Stab.% ± SD (percentage of non-metabolized compound),[4],98.40 ± 0.12%
CCN(CC)CCCC(C)Nc1ccnc2cc(Cl)ccc12 (stereo not drawn) [chloroquine],EC50,ZIKV [5]; read-out: in vitro EC50 against ZIKV,~5 µM
"NC(=O)c1ncn([C@@H]2O[C@H](CO)[C@@H](O)[C@H]2O)n1 [ribavirin, 1-β-d-Ribofuranosyl-1,2,4-Triazole-3-Carboxamide, reference compound]",EC50 against ZIKV,ZIKV [5],high micromolar range
same,CC50 at 3 days,[1],100 ± 14 µM
same,"SI (Selectivity Index, ratio between CC50 and IC50)",ZIKV [2]; VERO E6 cells,1.05
same,IC50,"ZIKV [2]; Vero C1008, VERO E6 cells, ZIKV M.O.I. 0.1, at least two experiments, read-out: IC50 ± SD (half-maximal inhibitory concentration, ZIKV plaque reduction)",95.5 ± 0.6 µM
